Patent US12599592B2, “Therapeutic small molecules for treatment of pulmonary hypertension” (UNIVERSITY OF PITTSBURGH—OF THE COMMONWEALTH SYSTEM OF …, priority 2020, dated 2026)

Key:
PAECs [1] = experiment: Apoptosis by caspase-3/7 activity in PAECs; assay type: cell-based, human
Text: (§1) Cell culture: Primary human pulmonary artery endothelial cells (PAECs) and human pulmonary artery smooth muscle cells (PASMCs) were purchased from Lonza (302-05A, CC-2581). Of note, the same two male donors were the source of all PAECs in the experiments shown. Two additional male donors were the source for all PASMCs in the experiments shown. Cells from these and any donors were characterized by flow cytometry for consistent expression of cell surface markers and by RNA (RT-qPCR) analysis of endothelial and smooth muscle gene expression. PAECs were cultured in EGM-2 media (CC-3121) along with supplements (CC-4133), and PASMCs were cultured in SmGM-2 culture media (Lonza, CC-3182) at 5% CO2 in a humidified incubator.
Human recombinant galectin-8 (1305-GA-050) was purchased from R&D Systems and was used at a working concentration of 30 nM.
(§2) For hypoxia exposure, cells were plated in 6-well cell culture plates at 1×10^5 cells/well, grown for 24 hr and placed into a normobaric hypoxia chamber (1% O2) for 24 h under specific treatment conditions. Namely, for I-BET and siLGALS8 exposures, cells were either pre-treated with I-BET/vehicle control (VC) or transfected with siLgals8/Scr for 24 h. Then, they were cultured in basal media at 1% 02. After 24 h, caspase activity and mitochondrial superoxide levels were quantified. To detect activation status of pSTAT1/STAT1 by immunoblot, cells were exposed to 8 h of hypoxia.
(§3) In IL-6/sIL-6R+hypoxia experiments, a human recombinant IL-6/IL-6R alpha protein chimera (25 ng/ml, Millipore) was administered at 70-80% confluency for 48 h in complete media along with vehicle control (DMSO, Sigma-41639). BRD2889 (1 uM) vs. vehicle control were added, as indicated, and placed into a hypoxia chamber for 24 h. The hypoxia chamber (modular incubator chamber) was obtained from Billups-Rothenberg Inc. (Del Mar, Calif) and placed in regulated CO2 incubator at 37° C.
(§4) Cellular apoptosis: Caspase-3/7 activity was quantified using the Caspase-Glo 3/7 Assay (Promega), according to manufacturer's instructions. Caspase-3/7 activity was normalized to total protein content determined by BCA method (Thermo Fisher Scientific).

[2] = tested on: monocrotaline-exposed pulmonary arterial hypertension rats; experiment: Monocrotaline (MCT) pulmonary arterial hypertension rat model; settings: BRD2889 5 mg/kg i.p. every 5 days, Days 12-26 post-MCT
Experimental: Following euthanasia, right ventricle/[left ventricle+septum]
Measurement of GST activity: The GST activity from lung tissue and PAECs was assayed using GST assay kit (Cayman, MI, USA) per the manufacturer's instructions.

[3] = biological target: T1, glutathione S-transferase (GST) activity / GSTP1 (Homo sapiens, UniProt P09211); experiment: GST activity in PAECs; assay type: cell-based
T1 construct: endogenous in cells; host or cells: primary human PAECs (hypoxia or IL-6/sIL-6R+hypoxia)
Experimental: as §2, §3

mitochondrial Complex I [4] = experiment: Mitochondrial Complex I activity in PAECs; assay type: cell-based, human
PAECs [5] = experiment: BrdU proliferation assay in PAECs; assay type: cell-based, human
Experimental: (§5) BrdU growth assay: Cell proliferation was assayed relative to day 0 using a BrdU Cell Proliferation Assay Kit (#6813, Cell Signaling) according to the manufacturer's protocol after incubation for 2 h with BrdU.

[6] = tested on: C43 genes (ISCU, mTOR); EDN1, VCAM1, ICAM1; experiment: RT-qPCR of Cluster 43 and proinflammatory genes in PAECs; assay type: cell-based, human
Experimental: as §3, with “BRD2889 (1 uM) vs. vehicle control were added, as indicated, and placed into a hypoxia chamber for 24 h.” left out
(§6) RT-qPCR analysis: Cells were lysis in 1 ml of QiaZol reagent (Qiagen). Total RNA content was extracted using the RNeasy kit (Qiagen), according to the manufacturer's instructions. Total RNA concentration was determined using a BioTek Synergy multimode plate reader. Messenger RNAs were reverse transcribed to generate cDNA using the Multiscript RT kit (Thermo Fisher Scientific). cDNA for specific gene targets was amplified and quantified via fluorescently-labeled Taqman primer sets and Taqman fast advanced master mix (Thermo Fisher Scientific) using an Applied Biosystems QuantStudio 6 Flex Real-Time PCR System.

C43 genes ISCU and mTOR = experiment: RT-qPCR of Cluster 43 genes in PASMCs; assay type: cell-based, human; settings: BRD2889 5 uM
Text: as §1, §6

mitochondrial Complex I [7] = experiment: Mitochondrial Complex I activity in PASMCs; assay type: cell-based, human; settings: IL-6/sIL-6R + hypoxia
Experimental: as §3
Mitochondria isolation: Mitochondrial fraction from cultured PAECs with drug and siGSTP1 using the Mammalian Mitochondria Isolation Kit for Tissue & Cultured Cells (Biovision, Inc.) according to the manufacturer's instructions.
Measurement of mitochondrial complex activities: Complex I activity of isolated mitochondria were measured using Complex I Enzyme Activity Microplate assay kit (Abcam, ab109721) according to the manufacturer's protocol. These enzymes were captured within the wells of the microplate coated by the corresponding complex enzyme antibody, and activities were detected colorimetrically.

PASMCs [8] = experiment: BrdU proliferation in PASMCs; assay type: cell-based, human; settings: IL-6/sIL-6R + hypoxia
Experimental: as §3, §5

PASMCs [9] = experiment: Apoptosis (caspase 3/7) in PASMCs; assay type: cell-based, human; settings: IL-6/sIL-6R + hypoxia
Experimental: as §3, §4

[10] = hypoxic PAECs with siRNA knockdown of ISCU

T1 sequence (P09211 2-210 limits assumed): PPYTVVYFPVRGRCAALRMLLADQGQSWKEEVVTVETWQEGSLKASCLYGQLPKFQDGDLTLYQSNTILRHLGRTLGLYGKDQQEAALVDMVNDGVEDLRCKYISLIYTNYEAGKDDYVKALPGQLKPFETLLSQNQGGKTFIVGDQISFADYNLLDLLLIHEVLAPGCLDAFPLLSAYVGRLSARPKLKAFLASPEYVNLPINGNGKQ

SMILES: COc1ccc(C#CC2CCCN(C(=O)/C=C/c3cc(OC)c(OC)c(OC)c3)C2=O)cc1 (centres unmarked) [BRD2889]
- apoptosis (caspase 3/7) (PAECs [1]; PAECs, IL-6/sIL-6R + hypoxia): reduced apoptosis
- apoptosis (caspase 3/7 activity) (PAECs [1]; hypoxic PAECs): reversed the increase
- hypoxic increase in apoptosis (PAECs [1]; [10]): did not reverse
- Fulton index (RV/LV+S) [2]: reduced
- RVSP [2]: reduced
- arteriolar muscularization [2]: reduced
- cleaved caspase-3 (CC-3) [2]: decreased
- endothelial ISCU [2]: increased
- lung GST activity [2]: decreased
- GSTP1 (GST) activity ([3]; PAECs, IL-6/sIL-6R + hypoxia, BRD2889 1 uM): reversed the increase
- GST enzyme activity ([3]; hypoxic PAECs): reduced the hypoxic increase
- mitochondrial Complex I activity (mitochondrial Complex I [4]; PAECs, IL-6/sIL-6R + hypoxia): partially rescued
- iron-sulfur-dependent mitochondrial Complex I activity (mitochondrial Complex I [4]; hypoxic PAECs): reversed the decrease
- hypoxia-induced decrease in mitochondrial Complex I activity (mitochondrial Complex I [4]; [10]): did not reverse
- proliferation (BrdU) (PAECs [5]; PAECs, IL-6/sIL-6R + hypoxia): increased proliferation
- proliferation (BrdU incorporation) (PAECs [5]; hypoxic PAECs): reversed the decrease
- hypoxia-induced decrease in proliferation (PAECs [5]; [10]): did not reverse
- inflammatory gene transcripts (EDN1, VCAM1, ICAM1) ([6]; IL-6/sIL-6R + hypoxia): normalized this upregulation
- C43 genes MID2, BANP, AGTRAP transcripts ([6]; hypoxia 48 hrs, BRD2889 5 uM): unaffected in hypoxia
- ISCU transcript (RT-qPCR) ([6]; hypoxia 48 hrs, BRD2889 5 uM): fully reversing the hypoxic decrease
- mTOR transcript (RT-qPCR) ([6]; hypoxia 48 hrs, BRD2889 5 uM): partially reversing the decrease
- hypoxia-induced reduction in ISCU transcript (C43 genes ISCU and mTOR): unaffected
- mTOR transcript (C43 genes ISCU and mTOR; hypoxia): no change
- mitochondrial Complex I activity (mitochondrial Complex I [7]): did not affect
- proliferation (PASMCs [8]): did not affect
- apoptosis (PASMCs [9]): only subtly changed
